One test concerns the target USP1-UAF1 (Homo sapiens, UniProt O94782). Kind of test: Ubiquitin Rhodamine assay of USP1-UAF1 activity. The format is biochemical. The method, then:
Certain compounds of the disclosure were assessed for USP1-UAF1 activity in a Ubiquitin Rhodamine assay as described in Biology Example 1.

A further test concerns MDA-MB-436. Kind of test: Viability assay, BRCA1 mutant cell line MDA-MB-436. The note with it: Homo sapiens, MDA-MB-436, viability, BRCA1 mutant MDA-MB-436; read-out: MDA-MB-436 rel IC50. Type of test: cell-based. From the text:
(§1) Table 1 also indicates IC50 values in a viability assay for a non-isogenic pair of BRCA1 mutant (column 5-MDA-MB-436) and BRCA1 WT (column 6—HCC1954) cell lines. These values indicate the effect of treatment with compound on cell survival.

In a further test the test system is HCC1954. The experiment in a line: Viability assay, BRCA1 WT cell line HCC1954. The note with it: Homo sapiens, HCC1954, viability, read-out: HCC1954 rel IC50. Type of test: cell-based.
Excerpt: as §1

From patent publication US20240059689A1, “PURINE DERIVATIVES AS ANTICANCER AGENTS” (Tango Therapeutics, Inc., priority 2021, published 2024) come the findings set out here.

Molecules are shown by their SMILES. Where only a bound is given, the exact number is not on record here.

Chain of USP1-UAF1 (O94782 whole entry): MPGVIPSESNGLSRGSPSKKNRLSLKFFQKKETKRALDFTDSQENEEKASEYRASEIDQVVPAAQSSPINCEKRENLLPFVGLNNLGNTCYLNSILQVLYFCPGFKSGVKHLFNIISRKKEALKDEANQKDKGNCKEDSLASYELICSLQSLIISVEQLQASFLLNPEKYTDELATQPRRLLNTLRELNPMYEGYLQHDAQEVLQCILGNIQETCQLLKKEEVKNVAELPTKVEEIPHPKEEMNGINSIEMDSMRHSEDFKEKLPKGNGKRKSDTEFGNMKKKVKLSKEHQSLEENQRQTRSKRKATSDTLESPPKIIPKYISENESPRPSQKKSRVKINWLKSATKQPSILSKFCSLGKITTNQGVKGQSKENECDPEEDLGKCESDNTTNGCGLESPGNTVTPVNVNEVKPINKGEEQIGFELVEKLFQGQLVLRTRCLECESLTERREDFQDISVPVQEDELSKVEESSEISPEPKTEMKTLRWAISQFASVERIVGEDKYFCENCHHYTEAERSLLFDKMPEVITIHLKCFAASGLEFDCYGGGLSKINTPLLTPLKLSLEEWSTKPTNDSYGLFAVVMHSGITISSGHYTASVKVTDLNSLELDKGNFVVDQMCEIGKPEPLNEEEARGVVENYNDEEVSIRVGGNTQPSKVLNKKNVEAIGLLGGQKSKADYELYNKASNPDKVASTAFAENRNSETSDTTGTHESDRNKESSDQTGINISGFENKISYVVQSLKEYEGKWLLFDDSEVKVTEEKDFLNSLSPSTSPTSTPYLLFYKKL
Chain of USP1-UAF1 (Q8TAF3 whole entry partner): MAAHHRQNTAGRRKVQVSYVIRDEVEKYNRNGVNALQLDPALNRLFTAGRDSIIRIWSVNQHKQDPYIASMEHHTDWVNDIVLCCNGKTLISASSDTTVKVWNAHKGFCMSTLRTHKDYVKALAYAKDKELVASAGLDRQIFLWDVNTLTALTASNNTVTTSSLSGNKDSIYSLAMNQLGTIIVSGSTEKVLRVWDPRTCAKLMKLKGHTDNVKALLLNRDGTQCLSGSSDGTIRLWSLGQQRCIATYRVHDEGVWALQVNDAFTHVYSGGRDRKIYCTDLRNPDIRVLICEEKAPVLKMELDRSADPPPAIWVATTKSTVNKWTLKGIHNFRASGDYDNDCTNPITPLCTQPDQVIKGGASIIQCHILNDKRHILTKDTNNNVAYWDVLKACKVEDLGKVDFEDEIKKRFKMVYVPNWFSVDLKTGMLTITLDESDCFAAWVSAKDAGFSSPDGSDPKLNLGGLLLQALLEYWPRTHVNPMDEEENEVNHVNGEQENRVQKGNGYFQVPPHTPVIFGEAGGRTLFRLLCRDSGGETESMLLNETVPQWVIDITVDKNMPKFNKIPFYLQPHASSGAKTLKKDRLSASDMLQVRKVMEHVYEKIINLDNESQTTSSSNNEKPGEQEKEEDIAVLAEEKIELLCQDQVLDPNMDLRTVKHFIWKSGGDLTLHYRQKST

Turning to `COc1cc(C(F)(F)F)nn1-c1ccc(Cn2c(=N)n(C)c3cnc(-c4ccccc4C(F)(F)F)nc32)cn1` [Example T-055], the half-maximal inhibitory concentration (IC50) was 100 to 10000 nM on USP1-UAF1, 250 to 10000 nM in the test with MDA-MB-436 and at least 10 µM in the test on HCC1954.

On to `COc1ccn(-c2ccc(Cn3c(=N)n(C)c4cnc(-c5ccccc5C(C)C)nc43)cc2C)n1` [Example T-056], for which the results for the IC50 against USP1-UAF1, with MDA-MB-436 and in the test with HCC1954 were 100 to 10000 nM, 250 to 10000 nM and 0.25 to 10 µM, respectively.

With `COc1ncncc1-c1ncc2c(n1)n(Cc1ccc(-c3nc(C(F)(F)F)cn3C)cc1)c(=N)n2C` [Example T-058], the IC50 was 100 to 10000 nM against USP1-UAF1, at least 10000 nM in the test on MDA-MB-436 and at least 10 µM with HCC1954.

Turning to `Cc1noc(C)c1-c1ncc2c(n1)n(Cc1ccc(-c3nc(C(F)(F)F)cn3C)cc1)c(=N)n2C` [Example T-062], the IC50 on USP1-UAF1 was 100 to 10000 nM; with MDA-MB-436, 250 to 10000 nM; in the test on HCC1954, at least 10 µM.

Turning to `Cn1c(=N)n(Cc2ccc(-c3nc(C(F)(F)F)c[nH]3)c(F)c2)c2nc(-c3ccccc3C(F)(F)F)ncc21` [Example T-068], the results for the IC50 at USP1-UAF1, in the test on MDA-MB-436 and with HCC1954 were 100 to 10000 nM, 250 to 10000 nM and 0.25 to 10 µM, respectively.

With `Cn1cc(C(F)(F)F)nc1-c1ccc(Cn2c(=N)n(C)c3cnc(-c4c(C(F)(F)F)nn(C)c4C#N)nc32)cc1` [Example T-072], the figures for the IC50 against USP1-UAF1, in the test on MDA-MB-436 and in the test on HCC1954 were 100 to 10000 nM, 250 to 10000 nM and 0.25 to 10 µM, respectively.

Consider `Cn1cc(C(F)(F)F)nc1-c1ccc(Cn2c(=N)n(C)c3cnc(-c4ccccc4C(F)(F)F)nc32)cn1` [Example T-073], for which the IC50 against USP1-UAF1 was 100 to 10000 nM; in the test with MDA-MB-436, 250 to 10000 nM; in the test on HCC1954, at least 10 µM.

Take `COc1ccn(-c2ccc(Cn3c(=N)n(C)c4cnc(-c5ccccc5C(C)C)nc43)cc2F)n1` [Example T-074]: the results for the IC50 on USP1-UAF1, in the test with MDA-MB-436 and with HCC1954 were 100 to 10000 nM, 250 to 10000 nM and 0.25 to 10 µM, respectively.

`CNc1ncccc1-c1ncc2c(n1)n(Cc1ccc(-c3nc(C(F)(F)F)cn3C)cc1)c(=N)n2C` [Example T-075]: the IC50 on USP1-UAF1 fell in the range of 100 to 10000 nM; in the test on MDA-MB-436, 250 to 10000 nM; with HCC1954 it was 0.25 to 10 µM.

With `Cn1c(=N)n(Cc2ccc(-c3nc(C(F)(F)F)cn3C3COC3)cc2)c2nc(-c3ccccc3C(F)(F)F)ncc21` [Example T-077], the IC50 against USP1-UAF1 was 100 to 10000 nM; in the test with MDA-MB-436 it was 250 to 10000 nM; in the test on HCC1954, at least 10 µM.

Consider `Cc1cc(-c2nc(C(F)(F)F)cn2C)cc(C)c1Cn1c(=N)n(C)c2cnc(-c3ccccc3C(F)(F)F)nc21` [Example T-080], for which the IC50 was 100 to 10000 nM against USP1-UAF1, 250 to 10000 nM with MDA-MB-436 and 0.25 to 10 µM with HCC1954.

Take `Cn1c(=N)n(Cc2ccc(-c3nc(C(F)(F)F)cn3CCO)cc2)c2nc(-c3ccccc3C(F)(F)F)ncc21` [Example T-083]: the IC50 at USP1-UAF1 is 100 to 10000 nM; in the test on MDA-MB-436, 250 to 10000 nM; in the test on HCC1954, at least 10 µM.

As to `COc1ncnc(C2CC2)c1-c1ncc2c(n1)n(C[C@H]1CC[C@H](c3nc(C(F)(F)F)cn3C)CC1)c(=N)n2C` [Example T-089], the IC50 is 100 to 10000 nM against USP1-UAF1, 250 to 10000 nM with MDA-MB-436 and at least 10 µM with HCC1954.

For the molecule `CC(C)c1cnccc1-c1ncc2c(n1)n(Cc1ccc(-c3nc(C(F)(F)F)cn3C)cc1)c(=N)n2C` [Example T-096], the concentration for half-maximal inhibition (IC50) is 100 to 10000 nM against USP1-UAF1, 250 to 10000 nM in the test on MDA-MB-436 and at least 10 µM in the test on HCC1954.

In the case of `Cn1cc(C(F)(F)F)nc1-c1ccc(Cn2c(=N)n(CC(F)(F)F)c3cnc(-c4c(C(F)(F)F)cnn4C)nc32)cc1` [Example T-101], the values for the IC50 against USP1-UAF1, in the test on MDA-MB-436 and in the test with HCC1954 were under 30 nM, 100 to 250 nM and 0.25 to 10 µM, respectively.

Turning to `COc1ncnc(C2CC2)c1-c1ncc2c(n1)n(Cc1ccc(-c3nc(C(F)(F)F)cn3C)cc1O)c(=N)n2C` [Example T-133, 2-[[2-(4-cyclopropyl-6-methoxy-pyrimidin-5-yl)-8-imino-7-methyl-purin-9-yl]methyl]-5-[1-methyl-4-(trifluoromethyl)imidazol-2-yl]phenol], the IC50 on USP1-UAF1 was 30 to 100 nM; with MDA-MB-436, under 100 nM; in the test with HCC1954, at least 10 µM.
